Entries after “also recorded” stand apart in the source; their conditions may differ. Square brackets hold non-standard residues; d marks the D form. Peptide text beside a SMILES is read from it. * marks the point of attachment. ξ: configuration not given here. DON = [N-]=[N+]=CC(=O)CC[C@H](N)C(=O)O; Ile(3ξ) = CCC(C)[C@H](N)C(=O)O; Cbz = O=C(OCc1ccccc1)*
Experiments:
[1] = test system: IL-13-stimulated hypersecretory epithelia; assay: Mucociliary clearance by video microscopy using fluorescent microspheres; assay type: cell-based; conditions: 30-second image sequence, n=2
Method: The final image from a 30-second image sequence (every 5 ms) is shown (ImageJ, Z Project). B: Quantification of travelled distance (ImageJ, Plugin MTrack3). Median values are shown. n=2.
(§1) Methods: The bronchial epithelium from asthmatic patients, cystic fibrosis or control subjects was reconstituted in vitro by culturing cells at the air-liquid interface. Hyper secretory differentiation was modeled by exposing control bronchial epithelial to IL-13. Expression of TG2 and MUC5AC was assessed by RT-qPCR and immunohistochemistry/immunofluorescence. Mucin modification by TG2 was evaluated by BAP incorporation and Western-blot analysis. Mucus tethering to the apical surface was studied by detecting MUC5AC after extensive apical washes with PBS. The role of TG2 was evaluated using the pharmacological inhibitor ZDON. Mucociliary clearance was evaluated by video microscopy using fluorescent microspheres.

[2] = test system: ALI-regenerated hypersecretory epithelia; assay: Mucus (MUC5AC) tethering to the apical surface after extensive apical washes with PBS, immunofluorescence; assay type: cell-based; conditions: IL-13-induced hypersecretory bronchial epithelium reconstituted in vitro at air-liquid interface; n=2
Excerpt: Whole-mount images represent stacks from optical sections done through the mucus (parallel to the plane of the epithelium). epi, epithelium. Extracellular mucus was quantified after beta-tubulin staining to delineate cell apex, and expressed as sum intensities (in […]) (n=2).
as §1

SMILES: CCC(C)[C@H](NC(=O)[C@H](CCC(N)=O)NC(=O)[C@H](CCC(=O)C=[N+]=[N-])NC(=O)OCc1ccccc1)C(=O)N[C@H](C(=O)OC)C(C)C (some centres unmarked) [ZDON] (Cbz-[DON]Q[Ile(3ξ)]V-OMe)
- Mucociliary clearance (travelled distance of fluorescent microspheres) [1]: tends to ameliorate mucociliary clearance
- MUC5AC tethering to the apical surface of hypersecretory epithelia [2]: decreases MUC5AC tethering; also recorded: blocked

Source: patent US20230414700A1, “TG2 INHIBITORS FOR IMPROVING MUCOCILIARY CLEARANCE IN RESPIRATORY DISEASES” (INSERM (INSTITUT NATIONAL DE LA SANTÉ ET DE LA RECHERCHE …, priority 2020, published 2023)
